Key:
Type in all cases: cell-based, human
[1] = test system: LNCaP cells; test: cell cycle analysis by flow cytometry (PI); conditions: serum-starved 24 hours then full media with LiCl up to 24 hours
Procedure: For cell cycle analysis, serum-starved cells were left untreated or treated with different inhibitors for various time periods as indicated in the figures. After trypsinization, the cells were fixed and stained with propidium iodide (“PI”). Cell cycle distribution of PI-labeled cells was analyzed on a fluorescence activated cell sorter (Model EPICS XL-MCL, Beckman-Coulter Co., Fullerton, Calif.) as described previously (Miyake 2001).
LNCaP cells were first serum-starved for 24 hours, and were then released by returning them to full culture media in the presence or absence of LiCl for up to 24 hours. Cell cycle distribution was analyzed by flow cytometry (“FCM”). […] When serum was added back in the culture (the control), cells re-entered into cell cycle.

[2] = test system: PC-3 cells; test: MTT cell growth assay; conditions: equimolecular concentrations of LiCl, NaCl, KCl, three days
Procedure: (§1) For MTT-based cell growth assays, cells seeded in 96-well plates were serum-starved for 48 hours, and were then treated with vehicle or different reagents for different time periods as indicated in the figures. MTT assay were carried out using a pre-assembled kit (Sigma) according to the manufacturer's manual.
(§2) To rule out the eventual intervention of the chloride anion and the osmotic disturbance, the effect of LiCl was compared with sodium chloride (“NaCl”) and potassium chloride (“KCl”) at equimolecular concentrations in both LNCaP and PC-3 cell lines. In addition, the androgen-insensitive C4-2 cell line was included. To easily handle the experiments while multiple comparisons were taken in place, a MTT assay was used to assess cell growth.

[3] = test system: C4-2 cells; test: MTT cell growth assay; conditions: equimolecular concentrations of LiCl, NaCl, KCl, three days
Procedure: as §1, §2

[4] = test system: LNCaP cells; test: trypan blue viable cell counting
Procedure: (§3) For cell counting assay, cells were seeded at the density of 5×10^4 cells in 12-well plates in duplicates and allowed for attachment overnight. Cells were harvested daily for three days and the number of viable cells was counted using a hemocytometer after staining in trypan blue solution (Liao 2003).
(§4) First, the effect of LiCl on cell growth was investigated. AR-positive, androgen-dependent LNCaP cells or AR-null PC-3 cells were seeded in a 12-well plate overnight and then treated with or without LiCl in different doses.

[5] = test system: PC-3 cells; test: trypan blue viable cell counting
Procedure: as §3, §4

[6] = test system: LNCaP cells; test: Affymetrix cDNA microarray for LiCl-induced changes
Procedure: Genechip® arrays (Affymetrix Inc, Santa Clara, Calif.) used herein contain almost 45,000 probe sets representing more than 39,000 transcripts derived from approximately 33,000 well substantial human genes. The in vitro-transcription labeling is conducted using the EnzoBio array high yield RNA transcript labeling kit (Affymetrix). Ten micrograms of total RNAs were used for the first strand cDNA synthesis using the SuperscriptChoice system (Invitrogen).
Genechips were hybridized for 16 hours at 45° C. and 60 rpm in Genechip hybridization oven Model 640. After washing the Genechip, the signal intensity was detected using the Agilent Gene Array scanner.
This example investigated the genes that are altered by GSK-3β inhibition. This approach started with a genome-wide screening of gene expression with cDNA Microarray to identify the altered genes, which was verified by RT-PCR and Western blot at mRNA and protein levels, respectively. After sequestered in serum-free media for 24 hours, LNCaP cells were left untreated or treated with LiCl in a full culture media for 18 hours. The total cellular RNAs were extracted from the cells for cDNA Microarray analysis.

[7] = LiCl at a dose of less than 3 mM, up to three days
[8] = LiCl in full culture media 18 hours, down-regulation
[9] = LiCl in full culture media 18 hours, up-regulation

## [Cl-].[Li+] [LiCl, Lithium chloride]
[1]
  portion of S-phase cells: dramatically increased
[2]
  cell growth inhibition (MTT): dramatic inhibition
[3]
  cell growth inhibition (MTT): dramatic inhibition
[4]; LiCl 10 mM
  inhibition of cell growth (viable cell count): significantly inhibited
[4]; LiCl 10 mM (no treatment 23.7 hours)
  mean doubling-time: 33.3 h
[4]; [7]
  inhibition of cell growth (viable cell count): no obvious inhibition
[5]; LiCl 10 mM
  inhibition of cell growth (viable cell count): significantly inhibited
[5]; LiCl 10 mM (no treatment 21.5 hours)
  mean doubling-time: 30.2 h
[5]; [7]
  inhibition of cell growth (viable cell count): no obvious inhibition
[6]; [8]
  fold change, Cyclin A2 (203418_at): −4.19
  fold change, Cyclin E2 (205034_at): −2.99
  fold change, Cyclin E2 (211814_s_at): −2.18
  fold change, cdc6 (203967_at): −3.47
  fold change, cdc6 (203968_s_at): −3
  fold change, cdc25c (205167_s_at): −2.74
  fold change, cdc25c (217010_s_at): −5.99
  fold change, cyclin B2 (202705_at): −1.4
  fold change, p27KIP1 (209112_at): −1.17
[6]; [9]
  fold change, cyclin D1 (203665_at): 2.07
  fold change, cyclin D1 (208712_at): 1.84
  fold change, cyclin G2 (202770_s_at): 1.87
  fold change, p21CIP1 (202284_s_at): 5.7
  fold change, p57KIP2 (213348_at): 1.79
[6]; LiCl treatment
  microarray expression of cyclin D1: slight increase
  microarray expression of other cell cycle related proteins (cyclin B, cdc2, p27KIP1, p57KIP2): No significant changes
[6]; LiCl-treated, control signal 137.6
  treatment signal, p57KIP2 (213348_at): 246.4
[6]; LiCl-treated, control signal 207.8
  treatment signal, cdc25c (217010_s_at): 34.7
[6]; LiCl-treated, control signal 294.7
  treatment signal, cyclin D1 (203665_at): 609.3
[6]; LiCl-treated, control signal 325.3
  treatment signal, cyclin G2 (202770_s_at): 606.9
[6]; LiCl-treated, control signal 430.9
  treatment signal, p21CIP1 (202284_s_at): 2457.2
[6]; LiCl-treated, control signal 442.3
  treatment signal, cdc25c (205167_s_at): 161.2
[6]; LiCl-treated, control signal 852.7
  treatment signal, Cyclin E2 (211814_s_at): 391.2
[6]; LiCl-treated, control signal 853.9
  treatment signal, cyclin D1 (208712_at): 1568.2
[6]; LiCl-treated, control signal 1132.5
  treatment signal, cdc6 (203968_s_at): 377.9
[6]; LiCl-treated, control signal 1136
  treatment signal, cdc6 (203967_at): 327
[6]; LiCl-treated, control signal 1268.1
  treatment signal, Cyclin E2 (205034_at): 423.8
[6]; LiCl-treated, control signal 1365.8
  treatment signal, p27KIP1 (209112_at): 1171.7
[6]; LiCl-treated, control signal 1529.8
  treatment signal, Cyclin A2 (203418_at): 364.7
[6]; LiCl-treated, control signal 2379.1
  treatment signal, cyclin B2 (202705_at): 1693.9

— US20070196514A1, “Prostate cancer treatment with glycogen synthase kinase-3beta inhibitors” (priority 2006, published 2007)
